Experiments:
[1] = target: dephosphorylated PDK1 (Homo sapiens (Human), UniProt O15530); test: PDK1 kinase assay (coupled PDK1/AKT/FAM-crosstide, IMAP); assay type: biochemical; details: 25 nM un-phosphorylated PDK1, 24 μM ATP; read-out: Inhibition of dephospo-PDK1 in vitro IC50
Summary of the method: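 Coupled cascade using 25 nM dephosphorylated PDK1 (aa 51–360, lambda-phosphatase treated, MS-verified), 30 nM unphosphorylated GST-AKT2 (aa 140–467)-PIFtide and 100 nM FAM-crosstide in Tris pH 7.2, 10 mM MgCl2, 1 mM DTT. ATP was 24 μM, with 30 min at 25 °C. Product was read by IMAP fluorescence polarization, and ΔmP against concentration was fitted with a 4-parameter model.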

[2] = target: full-length PDK1 (Homo sapiens (Human), UniProt O15530); test: PDK phosphorylation of AKT and PKC-PIFtide in presence of PIP3 vesicles; assay type: biochemical; details: substrates PKC-PIFtide vs AKT2
Chain of full-length PDK1 (O15530 whole entry): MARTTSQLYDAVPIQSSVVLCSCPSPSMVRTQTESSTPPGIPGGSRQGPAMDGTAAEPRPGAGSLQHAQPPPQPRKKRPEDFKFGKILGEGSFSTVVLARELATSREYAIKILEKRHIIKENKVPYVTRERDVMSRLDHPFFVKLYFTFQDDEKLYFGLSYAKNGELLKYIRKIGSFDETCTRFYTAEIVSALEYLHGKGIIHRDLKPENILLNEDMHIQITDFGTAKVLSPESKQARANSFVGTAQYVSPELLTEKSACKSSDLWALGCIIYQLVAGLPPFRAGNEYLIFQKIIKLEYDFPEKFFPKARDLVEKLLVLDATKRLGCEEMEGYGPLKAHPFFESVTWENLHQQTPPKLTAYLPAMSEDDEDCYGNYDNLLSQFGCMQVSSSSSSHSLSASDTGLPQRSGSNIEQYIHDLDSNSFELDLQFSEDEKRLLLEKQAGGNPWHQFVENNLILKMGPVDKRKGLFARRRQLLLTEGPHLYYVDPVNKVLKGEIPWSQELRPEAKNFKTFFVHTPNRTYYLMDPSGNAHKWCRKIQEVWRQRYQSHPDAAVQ
Experimental: PDK phosphorylation of two different substrates, AKT and PKC-PIFtide, was measured in presence of pre-formed phophoinositol lipid PIP3 vesicles. 5 nM full-length PDK1 and was incubated with 100 nM substrate (unphosphorylated, full-length AKT2 or PKC-PIFtide, Invitrogen cat#P2925) in presence of test compound or DMSO at room temperature for 3 hours. Final buffer conditions were 10 mM Tris pH 7.5 buffer containing 10 mM MgCl2, 0.002% Triton X-100, 1 mM DTT, 0.2 mg/ml BSA, 10 uM PtdIns(3,4,5)P3 (Matreya, Inc), 100 uM DOPC:DOPS (Avanti Polar Lipids), and 0.5 uCi γ^33P-ATP (3000 Ci/mmol, Perkin-Elmer.)
Kinase reactions were stopped with addition of 50 uM non-labelled ATP and 5 mM EDTA, then acidified with 0.5% final concentration phosphoric acid. Labeled proteins were collected in Whatman P81 filter plates and washed with three 150 ul volumes of 0.5% phosphoric acid.
Lipid vesicles were pre-formed as follows. 15 mg (3 ampules) DOPC:DOPS was resuspended in 898 ul 10 mM HEPES pH 7.4. 1 mg PIP3 was resuspended in 1000 ul 10 mM HEPES pH 7.4. 964 ul of PIP3 was mixed with 800 ul DOPC:DOPS and diluted with 18.2 ml 10 mM HEPES pH 7.4 and mixed by vortexing. The lipid mixture was subjected to 5 cycles of freeze/thaw using liquid nitrogen and a 50° C. water bath. Aliquot of lipids were flash frozen and stored at −20° C.

Chain of dephosphorylated PDK1 (O15530 51-360): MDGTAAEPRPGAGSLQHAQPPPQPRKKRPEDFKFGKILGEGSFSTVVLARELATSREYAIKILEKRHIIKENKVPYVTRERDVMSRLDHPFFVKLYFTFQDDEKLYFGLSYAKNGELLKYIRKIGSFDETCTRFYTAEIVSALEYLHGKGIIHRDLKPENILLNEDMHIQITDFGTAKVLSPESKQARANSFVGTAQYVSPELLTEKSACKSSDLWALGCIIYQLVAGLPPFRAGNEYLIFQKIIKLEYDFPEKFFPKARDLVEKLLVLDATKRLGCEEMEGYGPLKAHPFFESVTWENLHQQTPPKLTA

In the case of `O=C(NCc1nc(-c2c[nH]c3ncccc23)cs1)c1cccn(Cc2ccc(F)c(F)c2)c1=O` [Cpd 112], the IC50 [1] is reported as less than 0.5 µM and the “Ratio of PIP3 IC50 with PKCtide to PIP3 IC50 with AKT” value [2] is reported as 71.9.
